Patent US11866458B2, “Panaxadiol glycoside derivative and preparation method and application thereof” (SUZHOU JI ER BIOLOGICAL MEDICINE CO., LTD., priority 2018, dated 2024)

Experiments:
[1] = system: COPD rats induced by smoke exposure; assay: COPD induced by smoke exposure in rats: lung function FEV0.2/FVC; type: in vivo, Wistar rats; settings: for FEV2/FVC % (FEV0.2/FVC %, forced expiratory index within 200 ms): 180 days; for effect in COPD rats compared with inhaled budesonide: high dose group, oral
[2] = system: inflammatory cells in bronchoalveolar lavage fluid of mice; assay: Determination of inflammatory cells in bronchoalveolar lavage fluid of mice (OVA asthma model); type: in vivo, BALB/C mice; parameters: unit not given here; settings: oral
Method: 144 6-week-old BALB/C mice (18-20 g) were divided into 24 groups: control group, placebo group, dexamethasone group (3 mg/kg) and the drug groups. There were 6 in each group. The control group was given normal saline without any treatment. The other groups were sensitized by intraperitoneal injection of OVA 20 μg and aluminum hydroxide 200 μL PBC (2 mg, prepared into emulsion). […] On day 21, 22 and 23, the therapeutic agent (i.e. 3 mg/kg dexamethasone in the positive control group and oral administration in the drug group) was given orally. From day 17 to 23, PBS was given to the control group and placebo group respectively, PBS (without OVA) was given to the control group. On day 0 and day 14, the normal saline was nebulized for 30 minutes to remove the aluminum hydroxide on day 21, 22 and 23 See in Table 2.

[3] = system: mouse asthma model induced by OVA; assay: Asthma induced by ovalbumin in Balb/c mice: IgE level in serum by ELISA; type: in vivo; settings: oral; for content of IgE in mice serum (conclusion in words): model of mouse asthma induced by OVA, samples; for therapeutic effect on bronchial asthma induced by OVA: mouse
[4] = Table 1-1 (1st time), 20 mg/kg, 24 hours after last OVA stimulation

Structure (SMILES)	Acidic cells in bronchoalveolar lavage fluid ([2]; 2 mg/kg)	Neutral cells in bronchoalveolar lavage fluid ([2]; 2 mg/kg)	Total inflammatory cells in bronchoalveolar lavage fluid ([2]; 2 mg/kg)	lymphocyte in bronchoalveolar lavage fluid ([2]; 2 mg/kg)	Acidic cells in bronchoalveolar lavage fluid ([2]; 20 mg/kg)	Total inflammatory cells in bronchoalveolar lavage fluid ([2]; 20 mg/kg)	lymphocyte in bronchoalveolar lavage fluid ([2]; 20 mg/kg)	Neutral cells in bronchoalveolar lavage fluid ([2]; 200 mg/kg)	Total inflammatory cells in bronchoalveolar lavage fluid ([2]; 200 mg/kg)	lymphocyte in bronchoalveolar lavage fluid ([2]; 200 mg/kg)	Concentration of IgE in serum [3, 4] [ng/mL]	Concentration of IgE in serum ([3]; Table 1-2 (2nd time), 15 mg/kg) [ng/mL]	Concentration of IgE in serum ([3]; Table 1-2 (2nd time), 30 mg/kg) [ng/mL]	Concentration of IgE in serum ([3]; Table 1-2 (2nd time), 60 mg/kg) [ng/mL]	FEV2/FVC % (FEV0.2/FVC %, forced expiratory index within 200 ms) ([1]; 20 mg/kg oral) [%]	FEV2/FVC % (FEV0.2/FVC %, forced expiratory index within 200 ms) ([1]; 40 mg/kg oral) [%]	FEV2/FVC % (FEV0.2/FVC %, forced expiratory index within 200 ms) ([1]; 80 mg/kg oral) [%]	effect in COPD rats compared with inhaled budesonide [1]	content of IgE in mice serum (conclusion in words) [3]	therapeutic effect on bronchial asthma induced by OVA [3]	also measured
CCCC1O[C@@H]2C[C@H]3[C@@H]4CCC5=CC(=O)C=C[C@]5(C)[C@H]4[C@@H](O)C[C@]3(C)[C@]2(C(=O)CO)O1 (stereo partly drawn) [Budesonide, reference compound]																					FEV2/FVC % (FEV0.2/FVC %, forced expiratory index within 200 ms) ([1]; nebulized 0.25 mg/mL, 4 mL, 30 minutes): 79.47 ± 12.39 %
CC(=O)O[C@H]1CC[C@@]2(C)C(CC[C@]3(C)C2CC(=O)C2C([C@](C)(CCC=C(C)C)O[C@@H]4OC(CO)[C@@H](O)[C@H](O)C4O)CC[C@]23C)C1(C)C (stereo partly drawn) [IA, 3-O-acetyl-20(S)—O-β-D-glucopyranosyl Dammarane-24-ene-12-one]	29.23 ± 10.29	10.40 ± 6.48	40.75 ± 26.14	11.81 ± 5.97	11.46 ± 4.12	26.93 ± 15.01	8.84 ± 5.63	2.08 ± 2.01	10.85 ± 4.62	4.27 ± 3.16											Neutral cells in bronchoalveolar lavage fluid ([2]; 20 mg/kg): 6.38 ± 3.45
COC(=O)C1O[C@@H](O[C@@](C)(CCC=C(C)C)C2CC[C@]3(C)C2C(=O)CC2[C@@]4(C)CC[C@H](OC(C)=O)C(C)(C)C4CC[C@]23C)C(O)[C@@H](O)[C@@H]1O (stereo partly drawn) [IA-1, 3-β-O-acetyl-20(S)—O-β-D-glucopyranuronic acid methyl ester dammarane-24-ene-12-one]	26.55 ± 13.23	10.21 ± 6.07	43.42 ± 26.14	13.22 ± 8.27	13.26 ± 3.92	28.11 ± 14.91	4.76 ± 3.18	3.75 ± 2.46	11.48 ± 4.39	3.82 ± 2.66											Neutral cells in bronchoalveolar lavage fluid ([2]; 20 mg/kg): 3.95 ± 2.41; Acidic cells in bronchoalveolar lavage fluid ([2]; 200 mg/kg): 5.22 ± 3.31
CC(C)=CCC[C@](C)(O[C@@H]1OC(CO)[C@@H](O)[C@H](O)C1O)C1CC[C@]2(C)C1C(=O)CC1[C@@]3(C)CC[C@H](O)C(C)(C)C3CC[C@]12C (stereo partly drawn) [IB, 3β-hydroxyl-20(S)—O-β-D-glucopyranosyl dammarane-24-ene-12-one]	31.19 ± 8.46	12.11 ± 7.22	46.76 ± 25.18	10.07 ± 6.12	9.35 ± 4.16	25.18 ± 13.12	7.53 ± 4.95	3.49 ± 2.37	12.53 ± 6.23	3.75 ± 2.18	1337.11 ± 216.28	2023.33 ± 203.47	1909.19 ± 121.73	1769.13 ± 164.34	65.14 ± 12.78	73.59 ± 10.81	82.16 ± 9.01	superior to budesonide			Acidic cells in bronchoalveolar lavage fluid ([2]; 200 mg/kg): 5.14 ± 3.08
CC(C)=CCC[C@](C)(O[C@@H]1OC(CO)[C@@H](O)[C@H](O)C1O)C1CC[C@]2(C)C1C(=O)CC1[C@@]3(C)CC=CC(C)(C)C3CC[C@]12C (stereo partly drawn) [IH, 20(S)—O-β-D-glucopyranosyl dammarane-3, 24-diene-12-one]											1191.08 ± 107.59	1682.40 ± 182.76	1311.37 ± 165.93	1150.59 ± 129.55	63.27 ± 14.65	73.59 ± 12.14	85.51 ± 15.27	superior to budesonide	significantly reduce	obvious therapeutic effect	
CC(C)=CCC[C@](C)(O[C@@H]1OC[C@@H](O)[C@H](O)C1O)C1CC[C@]2(C)C1[C@H](O)CC1[C@@]3(C)CC[C@H](O)C(C)(C)C3CC[C@]12C (stereo partly drawn) [IJ, 20-O-β-D-xylopyranosyl-20(S)-panaxadiol glycoside]											1250.07 ± 144.38	2068.41 ± 153.29	1824.85 ± 155.74	1622.18 ± 130.38	65.78 ± 12.35	77.57 ± 9.69	84.36 ± 7.10	superior to budesonide			
CC(C)=CCC[C@](C)(O[C@@H]1OC(C)[C@H](O)[C@H](O)C1O)C1CC[C@]2(C)C1[C@H](O)CC1[C@@]3(C)CC[C@H](O)C(C)(C)C3CC[C@]12C (stereo partly drawn) [IK]											1020.78 ± 136.94	1720.54 ± 165.49	1406.28 ± 171.05	1217.43 ± 162.75	67.67 ± 11.39	78.59 ± 6.12	85.56 ± 10.07	superior to budesonide	significantly reduce	obvious therapeutic effect	
CC(C)=CCC[C@](C)(O[C@@H]1OC[C@H](O)[C@H](O)C1O)C1CC[C@]2(C)C1[C@H](O)CC1[C@@]3(C)CC[C@H](O)C(C)(C)C3CC[C@]12C (stereo partly drawn) [IL, 20-O-α-L-arabinopyrauosyl-20(S)-panaxadiol glycoside]											996.36 ± 102.45	1548.67 ± 190.16	1311.37 ± 154.37	1080.12 ± 131.23	71.15 ± 10.34	80.25 ± 8.79	89.62 ± 5.14	superior to budesonide	significantly reduce	obvious therapeutic effect	
